In this experiment the test system is central benzodiazepine receptors. The experiment can be described thus: Central benzodiazepine receptor binding (test of Speth et al.). Particulars: 1000 nM of the compound. The protocol: Compounds of the invention were assessed for their binding to the benzodiazepine receptor by the test of Speth et al. [Life Sci. 24, 351 (1979)] for central benzodiazepine receptors and LeFur et al. [Life Sci. 33, 449 (1983)] for peripheral receptors. The compounds were tested first at 1.0E-09, 1.0E-07 and 1.0E-05 M in single determination. […] The specific ligand binding to the receptor is defined as the difference between the total binding and the nonspecific binding determined in the presence of an excess of unlabelled ligand. In each experiment, the respective reference compound was tested concurrently with the test compounds in order to assess the assay suitability. It was tested at several concentrations (for IC50 value determination), and the data were compared with historical values. The assay was rendered valid if suitability criteria were met.
BZD central binding data for the compounds is provided in Table 3, wherein is provided the percent inhibition of central BZD in the presence of 1000 nM of the compound.
`Fc1cc(F)nc(NCc2c(-c3ccc(Cl)cc3)nc3ccccn23)n1` [Compound 167, N-((2-(4-chlorophenyl)imidazo[1,2-a]pyridin-3-yl)methyl)-4,6-difluoropyrimidin-2-amine]: the “% Inhibition at 1000 nM for CBZD” value is reported as “++ (percentage of inhibition of central BZD site binding is greater than 80% in the presence of 1000 nM of the compound)”.
Under `O=C1C=C(N2CCC(O)CC2)CN1Cc1c(-c2ccc(Cl)cc2)nc2ccccn12` [Compound 241, 1-((2-(4-chlorophenyl)imidazo[1,2-a]pyridin-3-yl)methyl)-4-(4-hydroxypiperidin-1-yl)-1H-pyrrol-2(5H)-one] stands “++ (percentage of inhibition of central BZD site binding is greater than 80% in the presence of 1000 nM of the compound)”; under `CN(C)CCNc1cncc(Cc2c(-c3ccc(Cl)cc3)nc3ccccn23)n1` [Compound 190, N1-(6-((2-(4-chlorophenyl)imidazo[1,2-a]pyridin-3-yl)methyl)pyrazin-2-yl)-N2,N2-dimethylethane-1,2-diamine], “++ (percentage of inhibition of central BZD site binding is greater than 80% in the presence of 1000 nM of the compound)”; under `CNC(=O)c1ncnn1Cc1c(-c2ccc(C)cc2)nc2ccc(C)cn12` [Compound 68, 2-(6-Methyl-2-p-tolyl-imidazo[1,2-a]pyridin-3-ylmethyl)-2H-[1,2,4]triazole-3-carboxylic acid methylamide], “++ (percentage of inhibition of central BZD site binding is greater than 80% in the presence of 1000 nM of the compound)”.
To `Cc1ccc(-c2nc3c(Cl)cc(Cl)cn3c2CNc2ncc[nH]2)cc1` [Compound 171, (6,8-Dichloro-2-p-tolyl-imidazo[1,2-a]pyridin-3-ylmethyl)-(1H-imidazol-2-yl)-amine] belongs “++ (percentage of inhibition of central BZD site binding is greater than 80% in the presence of 1000 nM of the compound)”; to `CCOC(=O)c1cc(-c2ccco2)nn1Cc1c(-c2ccc(Cl)cc2)nc2ccccn12` [Compound 31, Ethyl 1-((2-(4-chlorophenyl)imidazo[1,2-a]pyridin-3-yl)methyl)-3-(furan-2-yl)-1H-pyrazole-5-carboxylate], “+ (percentage of inhibition of central BZD site binding is greater than 50% but less than 80% in the presence of 1000 nM of the compound)”; to `Fc1ccc(-c2nc3ccc(Cl)cn3c2CNc2nc(F)cc(F)n2)cc1` [Compound 169, N-((6-Chloro-2-(4-fluorophenyl)imidazo[1,2-a]pyridin-3-yl)methyl)-4,6-difluoropyrimidin-2-amine], “++ (percentage of inhibition of central BZD site binding is greater than 80% in the presence of 1000 nM of the compound)”.
Under `Cc1ccc(-c2nc3ccc(C)cn3c2CSc2nc(C)cc(C)n2)cc1` [Compound 181, 3-((4,6-dimethylpyrimidin-2-ylthio)methyl)-6-methyl-2-p-tolylH-imidazo[1,2-a]pyridine] stands “++ (percentage of inhibition of central BZD site binding is greater than 80% in the presence of 1000 nM of the compound)”; under `Cc1ccc(-c2nc3ccc(C)cn3c2CSc2nncs2)cc1` [Compound 180, 6-Methyl-3-([1,3,4]thiadiazol-2-ylsulfanylmethyl)-2-p-tolyl-imidazo[1,2-a]pyridine], “++ (percentage of inhibition of central BZD site binding is greater than 80% in the presence of 1000 nM of the compound)”.
Turning to `Cc1ccc(-c2nc3ccc(C)cn3c2Cn2ccnc2)cc1` [Compound 1, 3-((1H-imidazol-1-yl)methyl)-6-methyl-2-p-tolylimidazo[1,2-a]pyridine], the “% Inhibition at 1000 nM for CBZD” value is on record as “++ (percentage of inhibition of central BZD site binding is greater than 80% in the presence of 1000 nM of the compound)”.

The values are drawn from patent US8497278B2, “Imidazo[1,2-a]pyridine compounds” (priority 2008, dated 2013).
